Data published in article PMC8346996, “Antiradical Properties of N-Oxide Surfactants—Two in One” (International Journal of Molecular Sciences, 2021).
≈ marks a conversion by molar mass, not a printed value. Like-named read-outs stand apart in the source and are kept apart here. Marks after values point to notes of the source that are not given here.

Assays:
[1] = Radical scavenging monitored by EPR spectroscopy, DPPH•; conditions: after 60 min of reaction; C/CMC = 100
Protocol: (§1) We began with an attempt to determine if the N-oxide surfactants can participate in the radical scavenging process when micelles are well-formed. Thus, the reaction mixtures containing a surfactant at C/CMC = 100, which is a typical concentration found in formulations, and GO• or DPPH• at 2 mM were prepared along with the control samples and monitored over time (solutions of DPPH• and GO• without surfactants).
(§2) The scavenging capacity of the surfactants was judged quantitatively by measuring the percentage of remaining GO• and DPPH• after a fixed reaction time. The relative concentration of GO• and DPPH• was calculated from Equation (1):(1) remaining radical%=It/I0×100% where I0 and It correspond to the EPR signal integral intensity of a radical in the absence and presence of the N-oxide surfactants after a fixed time, respectively.
(§3) The antiradical properties were studied by EPR using a Bruker ELEXYS E500 spectrometer equipped with an NMR gaussmeter and frequency counter. A microwave power of 10 mW, a modulation frequency of 100 kHz, a modulation amplitude of 1 G, a time constant of 82 ms, and a conversion time of 164 ms were adopted. The antiradical properties were evaluated against two model radicals: 2,2-diphenyl-1-picrylhydrazyl (DPPH•) and galvinoxyl (GO•). […]

[2] = Radical scavenging monitored by EPR spectroscopy, GO•; conditions: after 60 min of reaction; C/CMC = 100
Protocol: as §1, §2, §3

[3] = DPPH• scavenging kinetics by UV-vis, pseudo-first-order conditions
Protocol: After confirming that the absorption maximum at 517 nm of DPPH• is outside the surfactant’s absorption range, the rate of the DPPH•-scavenging reaction of the N-oxides was measured by monitoring the decrease in absorbance of this maximum. To ensure that the decay of DPPH• obeyed pseudo-first-order kinetics, the concentration of surfactants was at least a 54-fold excess of the DPPH• concentration. As explained in SI, the calculated pseudo-first-order rate constants, kobs, increased linearly with the concentration of Cn(DAPANO)2 and CnPDA (shown in SI). The second-order rate constants k2 for the reaction between the N-oxides and DPPH• were determined from the slopes of the linear plots of kobs vs. the concentration of the surfactants and are given in Figure 6.
The measurements were done under deaerated conditions at 298 K in ethanol solutions (2 mL in a 10 mm quartz cuvette) containing DPPH^• (C = 2.2 × 10^−4 M) and a surfactant at each of five different concentrations, namely C1 = 0.12 M, C2 = 0.09 M, C3 = 0.06 M, C4 = 0.03 M, and C5 = 0.012 M. UV−vis spectral changes associated with the undergoing reaction were monitored at 516 nm, using a Varian Cary 50Conc UV−visible Spectrophotometer. The following equations of the calibration curve were used to calculate DPPH^• concentrations in the reaction system: Abs = 4.0189 × C[mM] + 0.00813 (R^2 = 0.9998). The rate of DPPH^• scavenging reaction was determined using pseudo-first-order kinetics (the concentration of CnPDA or Cn(DAPANO)2 was maintained at more than 54-fold excess of the radical concentration); further details are given as Supporting Information.

[4] = MTT cell viability assay, HaCaT; format: cell-based, human; conditions: human, HaCaT cells (immortalized human keratinocytes), evaluated for CMC
Protocol: (§4) HaCaT (immortalized human keratinocytes from histologically normal skin) cell line was obtained from the CLS Cell Lines Service GmbH (Eppelheim, Germany). HGFs (human gingival fibroblasts) derive from primary cell culture. The cells were isolated according to the procedure described by Saczko et al. and patented by Saczko et al.. Cells were grown in plastic cell culture flasks in Dulbecco’s Modified Eagle’s Medium, supplemented with fetal bovine serum (FBS, Lonza, Morrisville, NC, USA), with 100 IU/mL penicillin, 50 mg streptomycin, and 125 μg amphotericin B (Sigma). The cells were maintained in a humidified atmosphere at 37 °C and 5% CO2. The cells were regularly maintained by systematic passaging. For experimental purposes, the cells were removed by trypsinization (0.25% Trypsin-EDTA, Sigma).
(§5) MTT (Sigma) test was used to determine the viability of HaCaT and HGFs cells. The MTT assay was used to test mitochondrial metabolic functioning. Cells were seeded on flat bottom 96-well tissue culture plates at a density of 10^4 cells/well and allowed to grow in a CO2 incubator at 37 °C overnight. In the case of these studies, the culture medium was removed, surfactant solutions were added, and the cells were exposed for 24 and 48 h to compounds at doses ranging from 50 to 2000 μg/mL. After incubation, MTT assay was applied according to the manufacturer protocol. The absorbance was measured at 570 nm using a multiwell plate reader (EnSpire Multimode Reader, Perkin Elmer). Each experiment was performed in a few independent repetitions. Mean values and standard deviations of all results were calculated. The final results were expressed as the percentage of mitochondrial function relative to untreated control cells.

[5] = system: normal human keratinocytes (HaCaT); experiment: MTT cell viability assay, HaCaT; format: cell-based; conditions: Homo sapiens, HaCaT, MTT
Protocol: as §4, §5

[6] = set-up: method as in PMID 23098238; conditions: cited from earlier work
[7] = set-up: method as in PMID 23098238; conditions: cited from earlier work; remark: listed apart in the source
[8] = MTT cell viability assay, HGFs; format: cell-based, human; conditions: human, primary human gingival fibroblasts (HGFs), evaluated for CMC
Protocol: as §4, §5

[9] = system: primary fibroblasts (HGFs); experiment: MTT cell viability assay, HGFs; format: cell-based, human; conditions: Homo sapiens, Fibroblast, MTT
Protocol: as §4, §5

**Q.** Which “reduced the number of DPPH• by” value [1] does the source give for `CCCCCCCCCCCC(=O)N(CCC[N+](C)(C)[O-])CCC[N+](C)(C)[O-]` [C12(DAPANO)2] here?
**A.** 86%

**Q.** What about the “reduced the number of GO• by” value [2] of the same compound?
**A.** 88%

**Q.** What about the “second-order rate constant k2 for the reaction with DPPH•” value ([3]; ethanol, 298 K, deaerated, DPPH• 2.2 × 10^−4 M, surfactant 0.012-0.12 M) of the same compound?
**A.** 0.00108 M⁻¹ s⁻¹

**Q.** And the “k2 higher in comparison with the CnPDA homolog” value ([3]; reaction with DPPH•)?
**A.** 19%

**Q.** What about the viability at 24 h ([4]; 24 h) of the same compound?
**A.** 9.2%

**Q.** What about the viability at 48 h ([4]; 48 h) of the same compound?
**A.** 16.4%

**Q.** What about the IC50 ([5]; 24 h incubation, read-out: IC50 HaCaT 24 h) of the same compound?
**A.** 95 µg/mL (≈ 237 µM)

**Q.** What about the IC50 ([5]; 48 h incubation, read-out: IC50 HaCaT 48 h) of the same compound?
**A.** 94 µg/mL (≈ 234 µM)

**Q.** And the “RH DLS” value [6]?
**A.** 2.04 ^a nm

**Q.** And the CMC [7]?
**A.** 5.5·10^−3 a M

**Q.** What about the viability at 24 h ([8]; 24 h, read-out: Viability 24 h HGF’s) of the same compound?
**A.** 17.1%

**Q.** And the viability at 48 h ([8]; 48 h, read-out: Viability 48 h HGF’s)?
**A.** 10.8%

**Q.** What about the IC50 ([9]; 24 h incubation, read-out: IC50 HGFs 24 h) of the same compound?
**A.** 27.9 µg/mL (≈ 69.5 µM)

**Q.** And the IC50 ([9]; 48 h incubation, read-out: IC50 HGFs 48 h)?
**A.** 1.2 µg/mL (≈ 2.99 µM)
